The record followed here is patent publication US11667621B2, “Antiestrogen compounds” (STEVENS INSTITUTE OF TECHNOLOGY, priority 2018, dated 2023).

Format in all cases: cell-based
The target in one test is T1, HA-ERα L536R (Homo sapiens, UniProt P03372, L536R).
T1 construct: HA; expressed in transfected cells
T1 sequence (P03372 1-595 L536R): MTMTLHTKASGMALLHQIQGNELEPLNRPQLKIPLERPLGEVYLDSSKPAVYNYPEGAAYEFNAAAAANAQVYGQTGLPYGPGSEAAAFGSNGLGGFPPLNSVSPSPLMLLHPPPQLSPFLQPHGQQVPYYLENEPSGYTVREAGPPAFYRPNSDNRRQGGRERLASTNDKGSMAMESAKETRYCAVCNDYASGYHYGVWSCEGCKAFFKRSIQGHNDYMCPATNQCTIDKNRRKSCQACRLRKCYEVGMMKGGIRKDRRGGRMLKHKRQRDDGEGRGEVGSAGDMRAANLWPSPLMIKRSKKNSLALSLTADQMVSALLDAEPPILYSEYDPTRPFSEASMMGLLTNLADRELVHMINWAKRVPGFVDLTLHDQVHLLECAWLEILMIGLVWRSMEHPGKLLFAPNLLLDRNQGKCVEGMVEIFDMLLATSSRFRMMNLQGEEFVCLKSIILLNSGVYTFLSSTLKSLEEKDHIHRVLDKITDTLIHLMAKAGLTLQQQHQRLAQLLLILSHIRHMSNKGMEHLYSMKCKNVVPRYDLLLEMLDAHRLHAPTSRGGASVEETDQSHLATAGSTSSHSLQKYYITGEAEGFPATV
Nature of the test: Luciferase assay, overexpressed ER (3×-ERE-TATA-Luciferase reporter). The conditions noted are these: compound concentration 1 μM, 24 hours. The method, boiled down: (§1)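 Cells transfected with HA-ERα wild type or mutant, 3×-ERE-TATA firefly luciferase reporter and pRL-TK Renilla, then treated one day later with compound for 24 h.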

Another test deals with T2, HA-ERα D538G (Homo sapiens, UniProt P03372, D538G).
T2 construct: HA; expressed in transfected cells
T2 sequence (P03372 1-595 D538G): T1 sequence (P03372 1-595 L536R) with R536L, D538G
The description is as above. The conditions noted are these: compound concentration 1 μM, 24 hours. In a few lines:
as §1

In the next test the target is T3, HA-ERα Y537S (Homo sapiens, UniProt P03372, Y537S).
T3 construct: HA; expressed in transfected cells
T3 sequence (P03372 1-595 Y537S): T1 sequence (P03372 1-595 L536R) with R536L, Y537S
The test is described as above. The settings on record: compound concentration 1 μM, 24 hours. In a few lines:
as §1

For a further test, the target named is T4, HA-ERα wild type (Homo sapiens, UniProt P03372).
T4 construct: HA; expressed in transfected cells
T4 sequence (P03372 1-595): T1 sequence (P03372 1-595 L536R) with R536L
The test is described as above. The conditions noted are these: compound concentration 1 μM, 24 hours; read-out: Overexpressed ER (% Inhibition) WT. The method, boiled down: as §1

In the next test the target is T5, CRISPR KI D538G (Homo sapiens, UniProt P03372, D538G).
T5 construct: endogenous in cells; host or cells: CRISPR knock-in clones (cl. 50, cl. 65)
T5 sequence (P03372 1-595 D538G): T1 sequence (P03372 1-595 L536R) with R536L, D538G
Nature of the test: Luciferase assay, CRISPR KI D538G clones. The conditions noted are these: for CRISPR KI (% Inhibition) D538G cl. 50: clone 50; for CRISPR KI (% Inhibition) D538G cl. 65: clone 65. Here is the method: Luciferase assays were performed to determine the efficacy of the example compounds at inhibiting ER or its mutants' ability to activate transcription of genes.
Cells were plated at a density of 0.15×10^6 per well of 24 well plates one day prior to transfection. Cells were transfected with 125 ng (per well) of HA-ERα wild type or mutants, 315 ng (per well) of 3×-ERE-TATA-Luciferase reporter and 50 ng (per well) of pRL-TK Renilla Luciferase plasmid, using Xtremegene (Roche). The cells were treated with the various compounds or Fulvestrant at the indicated doses a day after transfection for 24 hours and luciferase activities were determined using the Dual-Luciferase® Reporter Assay System (Promega) according to manufacturer's instructions. Luciferase bioluminescence measurements were performed with the Veritas™ Microplate Luminometer (Promega). All experiments were conducted in triplicate and the Firefly luciferase activity was normalized with the Renilla luciferase activity of each sample.

What is called inhibition is the change of the read-out against control, counted positive when it falls.

Substitutions are numbered along the chain they refer to.

On to `CC(C)(C)OC(=O)N[C@@H](Cc1c[nH]c2ccccc12)C(=O)NCCCCOc1ccc(C(=C2C3CC4CC(C3)CC2C4)c2ccc(O)cc2)cc1` [Example 1, (S)-tert-Butyl (1-((4-(4-(adamantan-2-ylidene(4-hydroxyphenyl)methyl)-phenoxy)butyl)amino)-3-(1H-indol-3-yl)-1-oxopropan-2-yl)carbamate], for which the inhibition at 1 µM on HA-ERα L536R was determined as 70%; at HA-ERα D538G, 84%; at HA-ERα Y537S, 62%; at HA-ERα wild type, 71%. Also, on CRISPR KI D538G, the “CRISPR KI (% Inhibition) D538G cl. 50” value came out at 15%. The “CRISPR KI (% Inhibition) D538G cl. 65” value on CRISPR KI D538G stood at 71%.

`O=C(NCCCCOc1ccc(C(=C2C3CC4CC(C3)CC2C4)c2ccc(O)cc2)cc1)C12CC3CC(CC(C3)C1)C2` [Example 6, N-(4-(4-(Adamantan-2-ylidene(4-hydroxyphenyl)methyl)phenoxy)-butyl)adamantane-1-carboxamide]: the inhibition at 1 µM against HA-ERα L536R is 70%; against HA-ERα D538G, 87%; on HA-ERα Y537S, 62%; at HA-ERα wild type it was 84%. Also, the “CRISPR KI (% Inhibition) D538G cl. 50” value at CRISPR KI D538G is 68%. The “CRISPR KI (% Inhibition) D538G cl. 65” value at CRISPR KI D538G was found to be 73%.

`CC12CC3CC(C)(C1)CC(C(=O)NCCCCOc1ccc(C(=C4C5CC6CC(C5)CC4C6)c4ccc(O)cc4)cc1)(C3)C2` [Example 7, N-(4-(4-(Adamantan-2-ylidene(4-hydroxyphenyl)methyl)phenoxy)butyl)-3,5-dimethyladamantane-1-carboxamide]: the inhibition at 1 µM against HA-ERα L536R came out at 77%; against HA-ERα D538G it was 83%; on HA-ERα Y537S, 46%; on HA-ERα wild type, 83%. Further, the “CRISPR KI (% Inhibition) D538G cl. 50” value on CRISPR KI D538G came to 15%. The “CRISPR KI (% Inhibition) D538G cl. 65” value on CRISPR KI D538G turned out to be 44%.

In the case of `O=C(NCCCCOc1ccc(C(=C2C3CC4CC(C3)CC2C4)c2ccc(O)cc2)cc1)C12CC3CC(CC1C3)C2` [Example 8, N-(4-(4-((Adamantan-2-ylidene)(4-hydroxyphenyl)methyl)phenoxy)butyl)-hexahydro-2,5-methanopentalene-3a(1H)-carboxamide], the inhibition at 1 µM against HA-ERα L536R was 84%; against HA-ERα D538G, 89%; against HA-ERα Y537S, 31%; on HA-ERα wild type, 83%. Moreover, the “CRISPR KI (% Inhibition) D538G cl. 50” value at CRISPR KI D538G came out at 39%. The “CRISPR KI (% Inhibition) D538G cl. 65” value on CRISPR KI D538G is reported as 78%.

As for `O=C(NCCCCOc1ccc(C(=C2C3CC4CC(C3)CC2C4)c2ccc(O)cc2)cc1)[C@H]1C[C@@H]2C=C[C@H]1C2` [Example 9, (1R, 2S, 4R)—N-(4-(4-(Adamantan-2-ylidene(4-hydroxyphenyl)methyl)phenoxy)-butyl)bicyclo[2.2.1]hept-5-ene-2-carboxamide], the inhibition at 1 µM at HA-ERα L536R was found to be 89%; on HA-ERα D538G, 92%; against HA-ERα Y537S, 33%; on HA-ERα wild type, 88%. In addition, the “CRISPR KI (% Inhibition) D538G cl. 50” value on CRISPR KI D538G turned out to be 34%. Besides, the “CRISPR KI (% Inhibition) D538G cl. 65” value on CRISPR KI D538G is reported as 72%.

For `O=C(NCCCCOc1ccc(C(=C2C3CC4CC(C3)CC2C4)c2ccc(O)cc2)cc1)C1CCC1` [Example 10, N-(4-(4-(Adamantan-2-ylidene(4-hydroxyphenyl)methyl)phenoxy)butyl)-cyclobutanecarboxamide], the inhibition at 1 µM against HA-ERα L536R amounted to 78%; on HA-ERα D538G, 89%; at HA-ERα Y537S it was 11%; at HA-ERα wild type it was 84%. Further, the “CRISPR KI (% Inhibition) D538G cl. 50” value at CRISPR KI D538G stood at 19%. Moreover, the “CRISPR KI (% Inhibition) D538G cl. 65” value on CRISPR KI D538G was determined as 65%.

Turning to `O=C(NCCCCOc1ccc(C(=C2C3CC4CC(C3)CC2C4)c2ccc(O)cc2)cc1)C1CCCCC1` [Example 11, N-(4-(4-(Adamantan-2-ylidene(4-hydroxyphenyl)methyl)phenoxy)butyl)-cyclohexanecarboxamide], the inhibition at 1 µM on HA-ERα L536R was 79%; on HA-ERα D538G it was 91%; against HA-ERα Y537S it was 86%; on HA-ERα wild type it was 89%. Further, at CRISPR KI D538G, the “CRISPR KI (% Inhibition) D538G cl. 50” value came out at 74%. Besides, the “CRISPR KI (% Inhibition) D538G cl. 65” value on CRISPR KI D538G is 84%.

Regarding `O=C(NCCCCOc1ccc(C(=C2C3CC4CC(C3)CC2C4)c2ccc(O)cc2)cc1)C1CCCCCC1` [Example 12, N-(4-(4-(Adamantan-2-ylidene(4-hydroxyphenyl)methyl)phenoxy)butyl)-cycloheptanecarboxamide], the inhibition at 1 µM on HA-ERα L536R was 87%; at HA-ERα D538G, 92%; against HA-ERα Y537S, 58%; at HA-ERα wild type it was 90%. Besides, the “CRISPR KI (% Inhibition) D538G cl. 50” value at CRISPR KI D538G was found to be 36%. Moreover, the “CRISPR KI (% Inhibition) D538G cl. 65” value on CRISPR KI D538G stood at 80%.

With `O=C(NCCCCOc1ccc(C(=C2C3CC4CC(C3)CC2C4)c2ccc(O)cc2)cc1)C1CCC(F)(F)CC1` [Example 13, N-(4-(4-(Adamantan-2-ylidene(4-hydroxyphenyl)methyl)phenoxy)butyl)-4,4-difluorocyclohexanecarboxamide], the inhibition at 1 µM on HA-ERα L536R stood at 90%; on HA-ERα D538G, 92%; against HA-ERα Y537S, 46%; on HA-ERα wild type, 90%. Moreover, the “CRISPR KI (% Inhibition) D538G cl. 50” value at CRISPR KI D538G is reported as 32%. Besides, at CRISPR KI D538G, the “CRISPR KI (% Inhibition) D538G cl. 65” value amounted to 77%.
